Data taken from US20240158740A1, “CELL CLUSTER PRODUCTION METHOD” (National University Corporation Tokyo Medical and Dental …, priority 2021, published 2024).

Assays:
Assay type in all cases: cell-based
[1] = test system: Human iPS cells (625A4) colonies; experiment: Differentiation marker analysis of cell cluster by immunocytostaining after Wnt signal-activating culture step (Day 2)
Procedure: Human iPS cells (625A4; Center for iPS Cell Research and Application (CiRA), Kyoto University) were cultured at 37° C. for 6 to 7 days under 5% CO2 in AK02N (Ajinomoto Co., Inc.) (10 cm dish; 8 ml, 24-well plate; 0.5 ml) to form iPS cell colonies of 500 to 700 μm in diameter. The obtained colonies were cultured at 37° C. for 2 days under 5% CO2 in Essential 8 medium (Gibco) (10 cm dish; 8 ml, 24-well plate; 0.5 ml) supplemented with BMP4 (80 ng/ml), VEGF (80 ng/ml), and CHIR99021 (2 μM) (Days 0 to 2). iPS cell colonies were formed as a control in the same manner as in [1] and [2]. Then, the obtained colonies were cultured at 37° C. for 2 days under 5% CO2 in Essential 8 medium (Gibco) (10 cm dish; 8 ml, 24-well plate; 0.5 ml) supplemented with BMP4 (80 ng/ml) and VEGF (80 ng/ml) (Days 0 to 2). After induction of differentiation in the step of Days 0 to 2 in [1] or [2], the medium was removed, and the cells were washed once with PBS(−) (Gibco). Then, 4% paraformaldehyde was added at a volume of 500 μl/24 wells to the cells and left at room temperature for 15 minutes. Then, the cells were washed three times with PBS(−) and preserved overnight at 4° C. Then, PROTEIN BLOCK SERUM-FREE blocking solution [DAKO, X909] was added at a volume of 500 μl/24 wells to the cells and left at room temperature for 60 minutes for blocking. Then, a primary antibody ( 1/100 Anti-GATA6 (Abcam plc, ab22600), 1/50 Anti-Brachyury T (R&D Systems, Inc., AF2085), 1/400 Anti-Sox2 (CST, 3579P2), 1/100 Anti-CDX2 (R&D Systems, Inc., MAB3665), and 1/50 Anti-AP-2a (Santa Cruz Biotechnology Inc., sc-12726)) against the target antigen was added to a 1% blocking solution in PBS(−). The primary antibody solution was added at a volume of 500 μl/24 wells and left standing at room temperature for 60 minutes or overnight at 4° C. Subsequently, the cells were washed three times with PBS(−). […] The processing of the obtained images and quantitative analysis were carried out using image analysis software “Fiji”.

[2] = test system: Human iPS cells (625A4) derived cell population; experiment: Differentiation marker analysis of cell population by immunocytostaining (Brachyury, CD34; Day 6); settings: cell cluster obtained with CHIR99021 2 μM (Days 0 to 2), further differentiated; cell population of Day 6
Procedure: Following the preparation of human yolk sac mesoderm cells in [1], the medium was replaced with Essential 6 medium (Gibco) (10 cm dish; 8 ml) supplemented with VEGF (80 ng/ml), FGF2 (25 ng/ml), SCF (50 ng/ml), and SB431542 (2 μM), and hemangioblasts were induced by further culture at 37° C. for 2 days under 5% CO2. Then, the medium was replaced with Stempro-34 SFM (Gibco) (10 cm dish; 8 ml) supplemented with VEGF (80 ng/ml), SCF (50 ng/ml), Flt-3L (50 ng/ml), IL-3 (50 ng/ml), IL-6 (50 ng/ml), and TPO (5 ng/ml), and the cells were cultured at 37° C. for 2 days under 5% CO2. Then, the medium was replaced with a medium of the composition described above except for VEGF, and CD34-positive and CD32-positive vitelline venous hemogenic endothelial cells were induced by culture at 37° C. for 2 days under 5% CO2. After induction of differentiation of the step of Days 4 to 6 in [4], immunocytostaining was performed by the same procedures as in [3] except that the primary antibody used was changed to 1/50 Anti-CD34 (Abcam plc, ab81289).

[3] = test system: Human iPS cells (625A4) derived cell population; experiment: Differentiation marker analysis using flow cytometry (CD34, CD32; Day 8); settings: cell cluster obtained with CHIR99021 2 μM (Days 0 to 2), further differentiated; cell population of Day 8; compared with control (−)
Procedure: Following the preparation of human yolk sac mesoderm cells in [1], the medium was replaced with Essential 6 medium (Gibco) (10 cm dish; 8 ml) supplemented with VEGF (80 ng/ml), FGF2 (25 ng/ml), SCF (50 ng/ml), and SB431542 (2 μM), and hemangioblasts were induced by further culture at 37° C. for 2 days under 5% CO2. Then, the medium was replaced with Stempro-34 SFM (Gibco) (10 cm dish; 8 ml) supplemented with VEGF (80 ng/ml), SCF (50 ng/ml), Flt-3L (50 ng/ml), IL-3 (50 ng/ml), IL-6 (50 ng/ml), and TPO (5 ng/ml), and the cells were cultured at 37° C. for 2 days under 5% CO2. Then, the medium was replaced with a medium of the composition described above except for VEGF, and CD34-positive and CD32-positive vitelline venous hemogenic endothelial cells were induced by culture at 37° C. for 2 days under 5% CO2. After induction of differentiation of vitelline venous hemogenic endothelial cells by the step of Days 6 to 8 in [4], the medium was removed, and the cells were washed twice with PBS(−) (Gibco). Then, TrypLE Express (Gibco) was added at a volume of 3 mL/dish and left at 37° C. for 15 minutes. Then, the cells were recovered into a 15 mL tube while dissociated by pipetting with P1000 micropipette. […] The differentiation markers were analyzed by BD LSRFortessa flow cytometry using the obtained antibody-stained cell suspension. Data obtained from flow cytometry was analyzed using FlowJo.

[4] = test system: Human iPS cells (625A4) colonies; experiment: Differentiation marker analysis of cell cluster by immunocytostaining after Wnt signal-inhibiting culture step (Day 2); settings: cell cluster of Day 2
Procedure: Human iPS cells (625A4; Center for iPS Cell Research and Application (CiRA), Kyoto University) were cultured at 37° C. for 6 to 7 days under 5% CO2 in AK02N (Ajinomoto Co., Inc.) (10 cm dish; 8 ml, 24-well plate; 0.5 ml) to form iPS cell colonies of 500 to 700 μm in diameter. The obtained colonies were cultured at 37° C. for 2 days under 5% CO2 in Essential 8 medium (Gibco) (10 cm dish; 8 ml, 24-well plate; 0.5 ml) supplemented with BMP4 (80 ng/ml), VEGF (80 ng/ml), and IWP-2 (2 μM) (Days 0 to 2).
iPS cell colonies were formed as a control in the same manner as in [1] and [2]. Then, the obtained colonies were cultured at 37° C. for 2 days under 5% CO2 in Essential 8 medium (Gibco) (10 cm dish; 8 ml, 24-well plate; 0.5 ml) supplemented with BMP4 (80 ng/ml) and VEGF (80 ng/ml) (Days 0 to 2).
After induction of differentiation in the step of Days 0 to 2 in [1] or [2], the medium was removed, and the cells were washed once with PBS(−) (Gibco). Then, 4% paraformaldehyde was added at a volume of 500 μl/24 wells to the cells and left at room temperature for 15 minutes. Then, the cells were washed three times with PBS(−) and preserved overnight at 4° C. Then, PROTEIN BLOCK SERUM-FREE blocking solution [DAKO, X909] was added at a volume of 500 μl/24 wells to the cells and left at room temperature for 60 minutes for blocking. Then, a primary antibody ( 1/100 Anti-GATA6 (Abcam plc, ab22600), 1/50 Anti-Brachyury T (R&D Systems, Inc., AF2085), 1/400 Anti-Sox2 (CST, 3579P2), 1/100 Anti-CDX2 (R&D Systems, Inc., MAB3665), and 1/50 Anti-AP-2a (Santa Cruz Biotechnology Inc., sc-12726)) against the target antigen was added to a 1% blocking solution in PBS(−). The primary antibody solution was added at a volume of 500 μl/24 wells and left standing at room temperature for 60 minutes or overnight at 4° C. Subsequently, the cells were washed three times with PBS(−). […] The processing of the obtained images and quantitative analysis were carried out using image analysis software “Fiji”.

SMILES	Enrichment of Brachyury-negative, GATA6-positive, and FOXF1-positive YSMCs in the cell cluster ([1]; CHIR99021 2 μM with BMP4 and VEGF in Essential 8, Days 0 to 2, cell cluster of Day 2, compared with no addition (−))	Morphology of the cell cluster under an optical microscope versus cell cluster obtained by a conventional method ([1]; CHIR99021 2 μM, 2 days after the start of culture)	GATA6 status of the CDX2-negative region (+CHIR) ([1]; CHIR99021 2 μM, Days 0 to 2, cell cluster of Day 2)	Appearance of CD34-positive vascular endothelial progenitor cells from YSM region in the outer edge part [2]	CD34-positive and CD32-positive vitelline venous hemogenic endothelial cells produced [3]	GATA6-positive cells in an outer edge part of the cell cluster ([4]; 2 μM, Days 0 to 2, compared with +CHIR)	Enrichment of CDX2-positive and TFAP2A-positive AECs in the cell cluster ([4]; IWP-2 2 μM with BMP4 and VEGF in Essential 8, Days 0 to 2, compared with no addition (−))	GATA6 status of the CDX2-positive region (+IWP-2) ([4]; IWP-2 2 μM, Days 0 to 2)
Cc1c[nH]c(-c2cnc(NCCNc3ccc(C#N)cn3)nc2-c2ccc(Cl)cc2Cl)n1 [CHIR99021]	enriched	differ morphologically	GATA6-positive	Rich CD34-positive vascular endothelial progenitor cells were confirmed to appear	more			
Cc1ccc2nc(NC(=O)CSc3nc4c(c(=O)n3-c3ccccc3)SCC4)sc2c1 [IWP-2]						small number of GATA6-positive cells	enriched	GATA6-negative
